By pKa is commonly meant the pH at which an ionisable group is half protonated. Low values mean a stronger acid or weaker base, high ones a weaker acid or stronger base. Take `Cn1nc(-c2ccccc2)cc/c1=N\CCN1CCOCC1`: under “basic group”, the pKa stood at 10.2.
For `C[C@@H]1CCN2CC[C@H](O)[C@H]12`, the pKa (basic group) came to 10.9.
In the case of `CC(C)C(O)C(C(=O)O)c1ccc(-c2ccccc2)cc1` (configuration not stated), the pKa (acidic group) was 4.13.
In turn, `CCOC(=O)/C(=N/O)c1ccccc1` had a pKa (acidic group) of 8.95.
As for `SCc1ncc[nH]1`, the pKa was found to be 9.26 (acidic group) and 6.37 (basic group).
In the case of `NCCCCO`, the pKa (basic group) is 10.3.
In turn, `O=C(O)c1cc2cc(Cn3cc[nH+]c3)ccc2s1` gave a pKa (acidic group) of 2.74.
For the setting “basic group”, `Cc1cnccn1` showed a pKa of 1.42.
`Nc1ccc(S(=O)(=O)Nc2ncco2)cc1`: the pKa (acidic group) was 6.5.
`CCN(CC)CCNc1cc(Nc2ccc(Cl)cc2)nc(C)n1` came in with a pKa (basic group) of 9.3.
As to `NC(=O)NOCCC([NH3+])C(=O)O` (configuration not stated), the pKa (acidic group) is 2.5.
The same measure, in the same setting: the result for `O=C(O)c1sccc1[N+](=O)[O-]` reads 2.68.
The same measure, in the same setting: the result for `O=C(O)C[Se]c1ccccc1` reads 3.75; that for `[O-]c1cc(O)nc[nH+]1`, 5.4.
Consider `C#CCN(C)C`, for which the pKa (basic group) stood at 7.05.
For the setting “acidic group”, `Nc1cc[nH+]c2c1ncn2CCOCP(=O)([O-])O` yielded a pKa of 7.1.
`COC(=O)N1c2ccccc2[C@@]23CCN4CC=C[C@]5(CC[C@]12[C@](O)(C(=O)OC)C5O)[C@H]43` (some centres not stated) showed a pKa (basic group) of 5.63.
`Cc1ccc(S(=O)(=O)NC(=O)OCc2ccc([N+](=O)[O-])cc2)cc1` showed a pKa (acidic group) of 3.8.
The molecule `CN(C)CC(=O)[O-]` registered a pKa (basic group) of 9.81.
Turning to `O=C(O)C(c1ccc(C2CCCCC2)cc1)C(O)c1ccccc1` (configuration not stated), the pKa (acidic group) was 4.24.
On to `CCOC(=O)Nc1ncnc2nc[nH]c12`, for which the pKa was found to be 9.63 (acidic group) and 2.4 (basic group).
Under “basic group”, `O=[N+]([O-])c1ccc2[nH]c(-c3cccs3)nc2c1` returned a pKa of 2.36.
For the setting “acidic group”, `Oc1cncc[nH+]1` came in with a pKa of -0.1.
Turning to `CN(CC[NH+](C)C)CC[NH+](C)C`, the pKa (basic group) was determined as 2.57.
For `CC(C)C[NH2+]CC(=O)O`, for the setting “acidic group”, the pKa came to 2.35.
For the molecule `COC(=O)c1nc2cc(Cl)ccc2[nH]1`, the pKa (basic group) came to 0.3.
`Cc1cc(O)ccc1Cl` registered a pKa (acidic group) of 9.4.
Still for that read-out and setting: the result for `CC(C)(C)C1CCn2nnnc2C(C(=O)O)C1` (configuration not stated) reads 4.4.
Same read-out and setting: the result for `CC(C)Cc1cnc(CC(C)C)c(O)[nH+]1` reads 1.7.
Molecule `O=C(O)c1ccc2ccccc2c1` gave a pKa (acidic group) of 4.2.
On the same count and under the same terms, the result for `N#CCc1ccc(C#N)cc1[N+](=O)[O-]` reads 11.4; that for `CC(=O)c1ccc(O)cc1`, 7.9.
For the molecule `Nc1nc[nH+]c2c1ncn2CCOCP(=O)(O)O`, the pKa was 1.22 (acidic group) and -0.35 (basic group).
The molecule `Cc1ccc([C@H]2C[C@@H]2C(=O)O)cc1` had a pKa (acidic group) of 4.6.
Molecule `O=S(=O)(Nc1ccccn1)c1ccccc1` yielded a pKa (acidic group) of 8.2.
Take `CC(C)[C@@]12CN[C@@H](C(=O)[O-])[C@@H]1CC(=O)O2`: the pKa (basic group) was 7.8.
Consider `Oc1ccc2cnc3ccccc3c2c1`, for which the pKa runs as follows: (acidic group) 8.43; (basic group) 5.35.
For `O=C([O-])c1ccc(O)c2ncccc12`, in that order: 9.32 and 4.8.
Consider `Cc1cc2ccccc2nc1C`, for which the pKa (basic group) was determined as 4.93.
The molecule `Clc1ccc2[nH]nnc2c1` had a pKa (acidic group) of 7.7.
Turning to `O=C(NCCCN1CCOCC1)c1ccc(Cl)cc1`, the pKa (basic group) was found to be 6.81.
Same read-out and setting: next, `Cc1cc(CO)c(C)c(C)n1`: 7.3.
Take `Cn1c(C(=O)O)cc(=O)n(C)c1=O`: the pKa (acidic group) came to 0.8.
The same measure, in the same setting: the result for `O=[N+]([O-])c1ccc(O)c(C[NH+]2CCOCCOCCOCCOCC2)c1` reads 5.79.
Where the note is “basic group”, `CN(C)CC(Cl)CCl` (configuration not stated) gave a pKa of 7.5.
`O=C(O)/C(I)=C/c1ccccc1` yielded a pKa (acidic group) of 3.3.
`CC(C)(C)[C@]1(O)CCN2C[C@H]3c4ccccc4CCc4cccc(c43)[C@@H]2C1`: the pKa (basic group) was 7.15.
The molecule `CCc1cccc2ccc(O)cc12` gave a pKa (acidic group) of 9.54.
Still for that read-out and setting: next, `O=[N+]([O-])c1cc(Cl)ccc1[Se]O`: 10.2.
In turn, `C[NH2+]CCN` registered a pKa (basic group) of 7.49.
Consider `c1cc(N2CCOCC2)ccc1N1CCOCC1`, for which the pKa (basic group) was 4.2.
Still for that read-out and setting: the result for `[O-]c1cnc2ccccc2n1` reads 9.1; that for `CCCCNc1ccccc1`, 5.11.
Same read-out and setting: the result for `O=C1[C@@H]2C[C@@H](CN3CCCC[C@@H]23)[C@H]2CCCCN12` reads 7.7.
For `Cn1c(=O)[nH]c2ncn(C)c2c1=O`, the pKa was determined as 8.65 (acidic group) and 0.5 (basic group).
In the case of `C[NH+](C)CC(P(=O)([O-])O)P(=O)([O-])O`, where the note is “acidic group”, the pKa turned out to be 5.75.
The same measure, in the same setting: the result for `O=C(c1ccccc1)c1cccc(O)c1` reads 9.
In the case of `O=[N+]([O-])c1cc(CN2CCOCC2)c([O-])c2ccccc12`, the pKa (basic group) amounted to 7.98.
Take `CC[C@]1(c2ccccc2)NC(=O)NC1=O`: the pKa (acidic group) amounted to 8.5.
On the same count and under the same terms, next, `N#Cc1c(-c2nc3ccccc3s2)c(=O)oc2cc(O)ccc12`: 6.38; `O=[N+]([O-])c1ccc(/C(=N\O)c2ccccc2)cc1`: 10.8.
Take `Cc1cc(NN)nc2ccccc12`: the pKa (basic group) is 8.35.
`C1CCCNCCC1` came in with a pKa (basic group) of 10.8.
Same read-out and setting: next, `CCSCCN`: 9.48.
Turning to `O=[N+]([O-])c1ccc(O)cc1`, the pKa (acidic group) was 7.13.
Under “basic group”, `NCC=C(Cl)Cl` came in with a pKa of 9.3.
On the same count and under the same terms, the result for `c1ccc(C2=Nc3ccccc3CO2)cc1` reads 3.48.
The same measure, in the same setting: the result for `c1ccc(CC2=NCCC2)cc1` reads 6.9.
`Cc1ccc(OC(O)(CBr)c2ccccc2)cc1` (configuration not stated) showed a pKa (acidic group) of 11.2.
For the setting “basic group”, `CCNNC` returned a pKa of 7.5.
Same read-out and setting: next, `C[C@H](N)[C@@H](C)N`: 9.88.
`CCC(Oc1ccccc1C)C(=O)O` (configuration not stated) yielded a pKa (acidic group) of 3.43.
In turn, `CC(CN(C)C)C(C#N)(c1ccccc1)c1ccccc1` (configuration not stated) returned a pKa (basic group) of 7.9.
For the molecule `[NH3+][C@H]1CCC[C@H](C(=O)O)C1`, the pKa (acidic group) worked out at 3.85.
For the setting “basic group”, `c1cnc2ccc3ncccc3c2c1` showed a pKa of 4.
`CSc1ccccc1C(=O)O` had a pKa (acidic group) of 3.89.
Same read-out and setting: next, `NCC(N)=O`: 8.05.
The same measure, in the same setting: the result for `CNc1cccc[n+]1O` reads 2.61; that for `NC(=O)c1ccccc1O`, 8.61.
Consider `Oc1n[nH]c(-c2ccccc2)c1Cc1ccccc1`, for which the pKa (acidic group) amounted to 7.7.
In turn, `COC(=O)CC(=O)c1ccncc1` returned a pKa (acidic group) of 8.24.
For the setting “acidic group”, `COc1ccc(O)cc1` returned a pKa of 10.2.
For the setting “basic group”, `CC(C)(C)c1cccc(C(C)(C)C)n1` gave a pKa of 4.95.
The same measure, in the same setting: next, `Cc1ccn(C)c2nc3ccccc3c1-2`: 8.35.
Same read-out and setting: next, `N#CC1CN2CCC1CC2` (configuration not stated): 7.85.
Take `O=C(O)c1cccc2ccc(O)cc12`: the pKa (acidic group) turned out to be 3.69.
In the case of `Oc1c(I)cc(I)c2cccnc12`, the pKa reads like this: (acidic group) 8; (basic group) 2.7.
In the case of `COc1ccc(OC)c2c1nc(CO)n2C`, under “basic group”, the pKa worked out at 5.24.
The molecule `NCC[n+]1ccc2ccccc2c1` showed a pKa (basic group) of 6.85.
The molecule `Nc1cc([O-])ccc1O` gave a pKa (acidic group) of 11.2.
With `C[n+]1nc(-c2ccccc2)ccc1NCCN1CCOCC1`, where the note is “basic group”, the pKa was 5.31.
The same measure, in the same setting: the result for `CN(CO)c1ccccc1` reads 3.72; that for `Clc1cccc(-c2ccccn2)n1`, 3.7.
`O=C(O)CCBr`: the pKa (acidic group) stood at 3.86.
Under “basic group”, `Cc1cc(C)c(CN)cc1N` showed a pKa of 9.77.
`O=[N+]([O-])c1n[nH]c(-n2cnc(Cl)n2)n1` yielded a pKa (acidic group) of 1.59.
With `[O-]c1nccc2nccnc12`, for the setting “basic group”, the pKa was found to be 11.1.
The molecule `CN(C)c1ccc(/C=N/c2ncc3[nH+]c[nH]c3n2)cc1` yielded a pKa (basic group) of 3.82.
On the same count and under the same terms, next, `CC(C)(C)NC1CCCCC1`: 11.3.
`[NH3+]CC[SeH]`: the pKa (acidic group) came out at 5.
On to `C=Cc1ccc(O)cc1`, for which the pKa (acidic group) turned out to be 9.91.
Same read-out and setting: the result for `C/C(=C\c1ccccc1)CC(=O)O` reads 5.35; that for `Cc1ccc(S(=O)(=O)NCC[NH+](CC(=O)O)CC(=O)O)cc1`, 2.15.
`Nc1nc[nH]n1`: the pKa by setting is: (acidic group) 10.7; (basic group) 4.3.
`Nc1cccc2nnn([C@@H]3C[C@@H](O)[C@H](CO)O3)c12`: the pKa (basic group) came to 1.8.
Regarding `S=C(Nc1ccc(Cl)cc1)c1ccc(Cl)cc1`, the pKa (acidic group) is 10.2.
In turn, `CC(C)(C)c1cccnc1` returned a pKa (basic group) of 5.82.
Turning to `CC(CC(O)(c1ccccc1)c1ccccc1)N1CCCCC1` (configuration not stated), where the note is “basic group”, the pKa turned out to be 8.62.
Still for that read-out and setting: the result for `CCN1CCC[C@@H]1CNC(=O)c1c(OC)ccc([N+](=O)[O-])c1[O-]` reads 9.12.
On to `O=C(O)[C@@H]1CSC[NH2+]1`, for which, where the note is “acidic group”, the pKa worked out at 1.58.
Turning to `CCN(CC)CCNc1nc(C)cc(Nc2ccc(Cl)cc2)n1`, where the note is “basic group”, the pKa worked out at 9.6.
Regarding `CCCCc1c(O)nc(NCC)[nH+]c1C`, for the setting “acidic group”, the pKa came to 5.04.
Where the note is “basic group”, `Nc1ccc2c(c1)CCCC2` yielded a pKa of 5.2.
Same read-out and setting: next, `Nc1ncnc2c1ncn2C1CCCCC1`: 4.19.
Turning to `CN(C)c1cccc[n+]1O`, under “acidic group”, the pKa amounted to 2.27.
On to `CCN(CC)CC(=O)NCc1ccccc1`, for which the pKa (basic group) worked out at 8.07.
Same read-out and setting: the result for `COC(=O)[C@@H]([NH3+])Cc1c[nH]cn1` reads 5.38.
`C=CC[NH+](C)CCCNC(=O)/C=N/O` showed a pKa (acidic group) of 8.48.
Where the note is “basic group”, `C[C@@H]1CCC[C@H](C)N1C` gave a pKa of 10.2.
In the case of `CBr`, the pKa (acidic group) worked out at 15.4.
Where the note is “basic group”, `C(=N\c1ccccc1)/c1ccccc1` had a pKa of 4.55.
Same read-out and setting: the result for `CCN(CC)CCSCC(C)C` reads 8.83.
Molecule `Cc1cccc(SCC(=O)O)c1` showed a pKa (acidic group) of 3.52.
Turning to `COCCNc1ccc(OC)cc1`, where the note is “basic group”, the pKa came out at 5.02.
With `Cc1c(C)c2c(c(C)c1OP(=O)([O-])O)CCC(C)(CCC[C@@H](C)CCC[C@@H](C)CCCC(C)C)O2` (some centres not stated), the pKa (acidic group) turned out to be 9.44.
Still for that read-out and setting: next, `O=S(Cc1ccccc1)c1ncn[nH]1` (configuration not stated): 7.38.
`Oc1onc2c1CCN(Cc1ccccc1)CC2` displayed a pKa (basic group) of 8.
On the same count and under the same terms, next, `CCNCc1ccccc1`: 9.75.
The same measure, in the same setting: next, `Nc1nnnn1-c1ccc([N+](=O)[O-])cc1`: 0.34.
The same measure, in the same setting: next, `CCCNC(C)C(=O)[O-]` (configuration not stated): 10.2.
The molecule `Clc1c(Cl)c(Cl)c2[nH]nnc2c1Cl` registered a pKa (acidic group) of 4.52.
Turning to `O=C1NC(=O)c2ccccc21`, the pKa (acidic group) turned out to be 9.91.
`CN(C)C[C@@H]1[C@H](CO)[C@H]2C=C[C@@H]1C2`: the pKa (basic group) turned out to be 9.54.
Turning to `Nc1cc2ccccc2nn1`, the pKa (basic group) was determined as 3.66.

Values taken from the pKa sets of Baltruschat and Czodrowski (2020).
